{
  "source": "ChEMBL document CHEMBL1136535",
  "about": "“Unexpected inhibition of S-adenosyl-L-homocysteine hydrolase by a guanosine nucleoside” (Bioorg Med Chem Lett, 2003)",
  "key": {"[1]": {"target": "T1, Adenosylhomocysteinase (Homo sapiens, UniProt P23526)", "T1 sequence (P23526 whole entry)": "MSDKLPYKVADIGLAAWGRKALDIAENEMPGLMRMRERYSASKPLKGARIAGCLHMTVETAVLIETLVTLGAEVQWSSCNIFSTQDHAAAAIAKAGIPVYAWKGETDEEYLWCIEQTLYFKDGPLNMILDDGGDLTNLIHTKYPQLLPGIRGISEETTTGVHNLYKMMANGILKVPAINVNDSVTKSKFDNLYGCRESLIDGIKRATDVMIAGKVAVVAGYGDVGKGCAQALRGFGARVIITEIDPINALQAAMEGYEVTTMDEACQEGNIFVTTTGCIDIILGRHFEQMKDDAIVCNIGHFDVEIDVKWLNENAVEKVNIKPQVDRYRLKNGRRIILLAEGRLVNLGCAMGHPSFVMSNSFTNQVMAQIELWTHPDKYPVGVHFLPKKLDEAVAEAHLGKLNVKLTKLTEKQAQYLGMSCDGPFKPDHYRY", "test": "Inhibitory activity against S-adenosyl-L-homocysteine hydrolase was determined in hydrolysis direction"}, "[2]": {"target": "T1, Adenosylhomocysteinase", "test": "Inhibitory activity against S-adenosyl-L-homocysteine hydrolase was determined in synthetic directions"}, "[3]": {"target": "T1, Adenosylhomocysteinase", "test": "Inhibitory activity against S-adenosyl-L-homocysteine hydrolase was determined"}},
  "data": [
    {"smiles": "Nc1nc(O)cc(-c2cncn2C2O[C@H](CO)[C@@H](O)[C@H]2O)n1", "note": "(stereo not given in full)", "values": [
      {"measurement": "Ki", "setting": "[1]", "value": 128, "unit": "µM"},
      {"measurement": "Ki", "setting": "[2]", "value": 217, "unit": "µM"}
    ]},
    {"smiles": "OC[C@H]1OC(n2cncc2-c2cc(O)ncn2)[C@H](O)[C@@H]1O", "note": "(stereo not given in full)", "values": [
      {"measurement": "Ki", "setting": "[3]", "value": 422, "unit": "µM"}
    ]},
    {"smiles": "Nc1nc2c(ncn2[C@@H]2O[C@H](CO)[C@@H](O)[C@H]2O)c(=O)[nH]1", "note": "[GUANOSINE]", "values": [
      {"measurement": "Ki", "setting": "[3]", "value": 1470, "unit": "µM"}
    ]},
    {"smiles": "OC[C@H]1O[C@@H](n2cnc3c(O)ncnc32)[C@H](O)[C@@H]1O", "note": "[INOSINE]", "values": [
      {"measurement": "Ki", "setting": "[3]", "value": 925, "unit": "µM"}
    ]}
  ]
}
